We go through 18 molecules from US4432974A, “Antiinflammatory and/or analgesic 2,3-diaryl-5-silyl thiophenes” (E. I. Du Pont de Nemours and Company, priority 1982, dated 1984).

Where two headings read alike, the source gives them in different places. Bounds are passed on as bounds.

What is called ED50 is the dose that gives a 50% effect, or the effect in half of the subjects.

Assay [1] concerns phenylquinone-induced writhing in mice. Kind of assay: Phenylquinone Writhing Test. It counts as in vivo, female white mice. To be noted: Mus musculus, read-out: Phenylquinone Writhing ED50. The method, then:
A standard procedure for detecting and comparing the analgesic activity of compounds in this series for which there is a good correlation with human efficacy is the standard phenylquinone writhing test modified from Siegmund, et al., Proc. Soc. Exp. Biol. Med., 95, 729 (1957). A test compound suspended in 1% methylcellulose was given orally to fasted (17-21 hours) female white mice, 5-20 animals per double blind test. Aqueous (0.01% phenyl-p-benzoquinone) phenylquinone, 0.20 ml per mouse, was injected intraperitoneally 6 minutes before observations were begun. […] The effective analgesic dose for 50% of the mice (ED50) was calculated by the moving average method of Thompson, W. R., Bact. Rev., 11, 115-145 (1947); the time of peak activity was determined for many of the compounds. Data for some of the compounds is summarized in Tables II and III together with data for some standard analgetic antiinflammatory drugs.
(In writhing tests, fewer writhes than in controls are read as antinociception.)

The subject of assay [2] is adjuvant-induced arthritis in rats. The assay is described as follows: Established Adjuvant-Induced Arthritis in Rats. It counts as in vivo, Charles River Lewis male rats. The settings on record: for ED50: 168 h, read-out: Adjuvant Arthritis ED50 % Decrease From Control Paw Volume.
Where [3] appears, read: daily oral dose 45 mg/kg, 7 days, rat, footnote 1 p < .001, footnote 2 p < .05 vs control.
Where [4] appears, read: Table III, oral daily, 7 days, rat, from dose-response regression lines.
Where [5] appears, read: Table III, oral, fasted female white mice.

Consider `CC(=O)Oc1ccccc1C(=O)O` [Aspirin, reference compound], for which the ED50 in assay [1] (po) stood at 135 mg/kg. `COc1ccc(-c2cc([Si](C)(C)C)sc2-c2ccc(OC)cc2)cc1` [Example 1, 2,3-Bis(4-methoxyphenyl)-5-(trimethylsilyl)thiophene]: the ED50 stood at 8 mg/kg in assay [2] (Rattus norvegicus, po) and 0.19 mg/kg in assay [1] (po).

With `COc1ccc(-c2cc([SiH](C)C)sc2-c2ccc(OC)cc2)cc1` [Example 2, 2,3-Bis(4-methoxyphenyl)-5-(dimethylsilyl)thiophene], the 50% effective dose (ED50) in assay [2] (Rattus norvegicus, po) was found to be 14.5 mg/kg; in assay [1] (po), 2.1 mg/kg. As to `C[Si](C)(C)c1cc(-c2ccc(F)cc2)c(-c2ccc(F)cc2)s1` [Example 3], the “Adjuvant Arthritis Percent Decrease From Control Paw Volume” value in assay [2] (daily oral dose 27 mg/kg, 7 days, rat, p < .001 vs control (Student's t)) stood at 37%. The ED50 in assay [1] (po) amounted to 4.5 mg/kg.

For the molecule `C[Si](C)(C)c1cc(-c2ccccc2)c(-c2ccccc2)s1` [Example 4], the median effective dose (ED50) was determined as 45 mg/kg in assay [2] (Rattus norvegicus, po) and 15 mg/kg in assay [1] (po).

`Cc1ccc(-c2cc([Si](C)(C)C)sc2-c2ccc(C)cc2)cc1` [Example 5]: the “Adjuvant Arthritis Percent Decrease From Control Paw Volume” value in assay [2] (setting [3]) is recorded as 44%. Also, in assay [1] (po), the ED50 worked out at 135 mg/kg. For the molecule `CSc1ccc(-c2sc([Si](C)(C)C)cc2-c2ccc(F)cc2)cc1` [Example 6], the “Adjuvant Arthritis Percent Decrease From Control Paw Volume” value in assay [2] (daily oral dose 81 mg/kg, 7 days, rat, p < .001 vs control (Student's t)) came to 42%.

Turning to `C=C[Si](C)(C)c1cc(-c2ccc(OC)cc2)c(-c2ccc(OC)cc2)s1` [Example 7, 2,3-bis(4-methoxyphenyl)-5-(ethenyldimethylsilyl)thiophene], the ED50 in assay [2] (Rattus norvegicus, po) was determined as 6.8 mg/kg; in assay [1] (po), 0.23 mg/kg. As to `C=CC[Si](C)(C)c1cc(-c2ccc(OC)cc2)c(-c2ccc(OC)cc2)s1` [Example 8, 2,3-bis(4-methoxyphenyl)-5-[(2-propenyl)dimethylsilyl]thiophene], the ED50 was 9.4 mg/kg in assay [2] (Rattus norvegicus, po) and 0.76 mg/kg in assay [1] (po).

Consider `COc1ccc(-c2cc([Si](C)(C)CCC(F)(F)F)sc2-c2ccc(OC)cc2)cc1` [Example 9], for which the ED50 in assay [2] (Rattus norvegicus, po) is 30 mg/kg. With `CC[Si](CC)(CC)c1cc(-c2ccc(OC)cc2)c(-c2ccc(OC)cc2)s1` [Example 10], the 50% effective dose (ED50) in assay [2] (Rattus norvegicus, po) is 25 mg/kg; in assay [1] (po) it was 5.2 mg/kg. On the same counts, the results for `COc1ccc(-c2cc([Si](C)(C)C(C)(C)C)sc2-c2ccc(OC)cc2)cc1` [Example 11] are 40 mg/kg and above 108 mg/kg. Regarding `COc1ccc(-c2cc([Si](C)(C)c3ccccc3)sc2-c2ccc(OC)cc2)cc1` [Example 12], the ED50 in assay [2] (Rattus norvegicus, po) was 55 mg/kg; in assay [1] (po), below 108 mg/kg.

With `COc1ccc(-c2cc([Si](C)(C)Cc3ccccc3)sc2-c2ccc(OC)cc2)cc1` [Example 13], in assay [2] (setting [3]), the “Adjuvant Arthritis Percent Decrease From Control Paw Volume” value is recorded as 24%. Turning to `COc1ccc(-c2cc([Si](C)(C)OC)sc2-c2ccc(OC)cc2)cc1` [Example 21, 2,3-Bis(4-methoxyphenyl)-5-(methoxydimethylsilyl)thiophene], the ED50 in assay [2] (Rattus norvegicus, po) was determined as 9.8 mg/kg; in assay [1] (po) it was 3.8 mg/kg. In the case of `CC(C)Cc1ccc(C(C)C(=O)O)cc1` (centres unmarked) [Ibuprofen, reference compound], the ED50 is 100 mg/kg in assay [2] (setting [4]) and 10 mg/kg in assay [1] (setting [5]). `COc1ccc2c(c1)c(CC(=O)O)c(C)n2C(=O)c1ccc(Cl)cc1` [Indomethacin, reference compound]: the ED50 in assay [2] (Rattus norvegicus, po) is 0.3 mg/kg; in assay [1] (po) it was 0.35 mg/kg. On to `CCCCC1C(=O)N(c2ccccc2)N(c2ccccc2)C1=O` [Phenylbutazone, reference compound], for which the 50% effective dose (ED50) was determined as 10 mg/kg in assay [2] (setting [4]) and 80 mg/kg in assay [1] (setting [5]).
